# Reference: patent publication US20210290742A1, “METHODS OF USING LYSINE DEACETYLASE (KDAC) INHIBITION TO GENERATE ANTIGEN SPECIFIC MEMORY T CELL RESPONSES FOR DURABLE IMMUNOTHERAPY” (ARIZONA BOARD OF REGENTS ON BEHALF OF THE UNIVERSITY OF …, priority 2018, published 2021)
# Columns and labels:
# [1] = test system: antigen stimulated CD8+ T cells; experiment: CD8 expression asymmetry in antigen stimulated CD8+ T cells at 24 h; type: cell-based, murine; settings: TSA pre-treated, within 24 h, vs Ag alone
# Protocol: Results shown are representative of three independent experiments with identical outcomes. (h: hour; hi high; lo; low).
# (§1) Examples 1-0 were obtained from a murine transgenic model, from which in vitro stimulated naïve cells were isolated from TCR transgenic mice (OT-1/Rag -/-). In brief, the CD8+ T cells obtained from nave TCR transgenic mice (OT-1/Rag -/-) mice were stimulated in vitro with latex microspheres on which major histocompatibility complex (MHC) Class I (H-2Kb) dimers bearing 10 nM of cognate peptide (Ag) were immobilized, along with 1 μg/ml of recombinant murine […] (co-stimulation) and 2 ng/ml of rmIL-12 (cytokine) (FIG. 1).
# Accumulating evidence implicates a deterministic role for cellular asymmetry in antigen induced CD8+ T cells division and functional maturation. The KDACi-mediated reduced TCR signaling and mTOR activity were examined to determine their effect on the induction of inherent asymmetry produced in antigen stimulated CD8+ T cells (FIGS. 4A-4D). […] This could be attributed to the lower threshold of early activation/TCR signaling cues available to the TSA primed CD8+ T cells.
# [2] = test system: antigen stimulated CD8 High and CD8 Low T cells; experiment: mTORC1 activity, cell cycle and proliferation of FACS sorted CD8 High and CD8 Low cells at 48 h; type: cell-based, murine; settings: total 48 hours
# Protocol: Gating strategies and growth profiles of antigen alone (Ag) or TSA induced antigen (Ag+TSA) at 48 hours are shown for CD8 High and CD8 Low populations. Ag and Ag+TSA CD8+ T-cell cultures were FACS sorted on the basis of CD8α expression. […] Solid line histograms represent Ag or Ag+TSA CD8 or High cells and shaded histograms are unstimulated naïve CD8+ T cells. […] Solid line histograms represent Ag or Ag+TSA CD8 Low or High cells and shaded histograms are unstimulated naïve CD8+ T cells. […] Error bars are the standard error of mean (SEM) values obtained from three independent experiments. (h: hour; hi: high; lo: low).
# as §1
# To determine the implications of the TSA-mediated tuned percentage of CD8 expression on the growth profile, of these cells, the 24 hours Ag and Ag # TSA CD8+ T cells were separated by FACS sorting on the basis of their CD8 expression (FIGS. 5A-5H).
# Human Jurkat T cells = experiment: Early CD69 expression on stimulated Jurkat T cells; type: cell-based; settings: TSA 10 ng/ml, anti-CD3/anti-CD28 stimulation, 2 and 4 hours
# Protocol: Human Jurkat T Cells were incubated with anti-CD3/anti-0028 (Ag) in the presence or absence of TSA 10 ng/ml) or anti-CD45/CD28 (unstimulated) antibody mated chamber slides for indicated time points. The cells were harvested, counted and stained for CD69. […] FIGS. 10C and 10D show the percentage (% CD69) and their relative Mean Fluorescence intensity (MFI) at 2 and 4 hours, respectively (h: hour).
# (§2) Examples 9-10 were obtained from human Jurkat cell line. Jurkat T cells were […]
# [3] = test system: IL-2 gene expression in Human Jurkat cells; experiment: qPCR analysis of antigen-induced IL-2 gene expression in Jurkat T cells; type: cell-based; settings: anti-CD3/anti-CD28 stimulated Jurkat T cells, 30 min to 16 h, presence vs absence of TSA
# Protocol: IL-2 gene expression is shown in FIG. 11 in stimulated Jurkat T cells in presence or absence of ISA. Cells were incubated on the anti-CD3/anti-CD28 (stimulatory) or anti-CD45 (non-stimulatory) antibody coated chamber slides for 30 min to 16 h, then the total RNA was extracted and performed qPCR analysis of 1L-2 expression. Data shown are the mean fold change of ±SD of three independent experiments. Error bars represent standard deviations. *, statistically significant (p<0.05) and **, p=0.0071 with respect to the values obtained in the presence of TSA. ns, non-significant. (h: hour).
# as §2
# [4] = test system: naïve CD8+ (OT-I) T cells; experiment: Antigen-induced early activation of naïve CD8+ (OT-I) T cells, CD69/CD62L surface staining by flow cytometry; type: cell-based, murine; settings: pre-treatment with TSA 2.5 ng/ml, antigen stimulation 4 hours, vs antigen alone
# Protocol: KDAC inhibition with TSA at 2.5 ng/ml differentially regulates early activation phenotype of antigen stimulated CD8+ T cells. […] Naïve cells (control) are presented in shaded histograms, and antigen stimulated cells (Ag) are shown by the solid line histogram. […] The results shown are representative of five independent experiments with identical outcomes. (N: Naîve; A; Ag; A+T: Ag+TSA).
# (§3) Examples 1-0 were obtained from a murine transgenic model, from which in vitro stimulated naïve cells were isolated from TCR transgenic mice (OT-1/Rag -/-). […]
# Cognate antigen presented by MHC Class 1 to irate CD8+ T cells in the context of co-stimulation and cytokine leads to rapid (2-4 hours) increases in CD69 expression and decreases in CD62L, which indicate antigen induced early T cell activation response. To characterize early activation of T cells, naïve CD8+(OT-I) T cells were reacted with antigen (Ag; latex microspheres bearing H-2Kb-Fc+/8 amoni acid cognate peptide/rmB7-1) in vitro for 4 hours, cell surface was stained for […] and CD69 expression and evaluated by flow cytometry. […]
# [5] = test system: antigen stimulated CD8+ T cells; experiment: Clonal expansion of antigen stimulated CD8+ T cells; type: cell-based, murine; settings: TSA 2.5 ng/ml
# mTORC1 = mTORC1 activity by intracellular flow cytometry of pS6K in antigen stimulated CD8+ T cells; type: cell-based, murine; settings: TSA pretreatment, 4 and 8 hours post-antigen stimulation of naïve OT-1 T cells
# Protocol: (§4) Lysates from naïve OT-1 cells served as a control (N). Cell lysates were prepared at 0, 15, 60, or 120 minutes post-stimulation and analyzed for p-LcK^Tyr394, p-Zap70, p-PKCe and β-tubulin levels by Western blot analysis. […] The normalized values at indicated time-points are plotted. […] Naïve (shaded histograms, antigen alone (solid line histogram) and antigen plus TSA (histogram indicated by arrow). Error bars are the standard error of mean (SEM) values obtained from three independent experiments. Naïve OT-1 T cells were pre-treated with TSA for 30 minutes and then stimulated with Ag (microspheres bearing H-2K^b/cognate 8 amino acid peptide/B7-1), (h: hour: N: Naïve; A: Ag; A+T: Ag+TSA).
# as §3
# (§5) Western blot analysis was conducted to compare the level of phosphorylation of early TCR signaling proteins, Lck, Zap70, and PKCθ, by TSA pre-treatment of antigen stimulated CD8+ T cells. […] Since, the energy sensitive kinase mTORC1 serves as an integrative node for extracellular signals that initiate naïve CD8+ T cells activation, the mTORC1 activity was assessed by measuring the phosphorylation state of the mTORC1 target ribosomal […] (p-S6) by intracellular flow cytometry (FIG. 3D).
# [6] = test system: TCR proximal signaling (Lck, Zap70, PKCθ phosphorylation); experiment: Western blot of early TCR signaling proteins (p-Lck, p-Zap70, p-PKCθ) in antigen stimulated CD8+ T cells; type: cell-based, murine; settings: TSA pre-treatment 30 minutes 2.5 ng/ml, vs Ag alone
# Protocol: as §4, §1, §5
smiles,measurement,setting,value
"CC(/C=C/C(=O)NO)=C\[C@@H](C)C(=O)c1ccc(N(C)C)cc1 [TSA, Trichostatin A]",proportion of cells with increased expression of CD8,[1],lesser proportion of cells to have increased expression of CD8 as compared to Ag alone
same,mTORC1 activity (S6Kp) in CD8 Hi cells,[2]; Ag+TSA CD8 Hi vs Ag alone CD8 Hi,higher
same,cell cycle phase of CD8 High cells,[2]; Ag+TSA CD8 High vs Ag CD8 Hi,"enter S phase, comparable to the Ag CD8 Hi cells"
same,cell cycle phase of CD8 Low cells,[2]; Ag+TSA CD8 Low vs Ag CD8 Low,retained in the G0-G1 phase of cell cycle and do not enter the S phase
same,mTORC1 activity (S6Kp) in CD8 Low cells,[2]; Ag+TSA CD8 Low vs Ag CD8 Low,reduced
same,early antigen stimulation (CD69 expression),Human Jurkat T cells,dampens early antigen stimulation of Jurkat T cells
same,IL-2 gene expression,[3],reduces IL-2 gene expression
same,CD62L shedding,[4],increases CD62L shedding
same,CD69 expression,[4],reduces antigen dose dependent CD69 expression
same,clonal expansion,[5],reduces clonal expansion
same,mTORC1 activity (S6Kp),mTORC1,dampened mTORC1 activity
same,phosphorylation of Zap70,[6]; 60 minutes,reduction
same,phosphorylation of PKCθ,[6]; 120 minutes,reduction
same,phosphorylation of Lck,[6]; by 15 minutes,dampened
